Measured values as given in patent publication US12366579B2, “Sulfur-heterocycle exchange chemistry and uses thereof” (University of Virginia Patent Foundation, priority 2019, dated 2025).

Tests used:
[1] = test system: human cell proteomes (HEK293T, A549, DM93, H82, and Jurkat cells); test: LC-MS chemical proteomics of probe-modified tyrosine sites across 5 cell proteomes; assay type: binding; conditions: HHS-465 and -475 together; 100 μM, 1 hr, 25° C.
Description: Proteomes were diluted to 2.3 mg/mL in PBS and sample aliquots (432 μL) were treated with sulfonyl-triazole or -fluoride probes at the indicated concentrations (5 μL, 100× stock in DMSO), mixed gently and incubated for 1 h at room temperature. Probe-modified proteomes were subjected to CuAAC conjugation to desthiobiotin-PEG3-azide (10 μL of 10 mM stock in DMSO; final concentration of 200 μM) using TCEP (10 μL of fresh 50 mM stock in water; 1 mM final concentration), TBTA ligand (33 μL of a 1.7 mM 4:1 t-butanol/DMSO stock, 100 μM final concentration), and CuSO4 (10 μL of 50 mM stock, 1 mM final concentration). Samples were mixed by vortexing and then incubated for 1 h at room temperature. Excess reagents were removed by chloroform-methanol extraction as previously described^51. Protein pellets were re-suspended in 500 μL of 6M urea/25 mM ammonium bicarbonate followed by DTT reduction and IAA alkylation as previously described^5. Excess reagents were removed by chloroform/methanol extraction as described above, and the protein pellet was re-suspended in 500 μL of 25 mM ammonium bicarbonate and then digested to peptides using trypsin/Lys-C (7.5 μg in 15 μL of ammonium bicarbonate, sequencing grade from Promega, Madison, Wisconsin, United States of America) was added to the mixture and incubated for 3 hrs at 37° C. […]

[2] = HPLC assay, p-cresol reactivity against a sulfonyl probe mixture; assay type: physicochemical; conditions: TMG 1.1 equivalents, 0° C.
Description: The following reagents were prepared and kept at 0° C. prior to use: 0.1 M solution of caffeine in acetonitrile (ACN), 1.0 M solution of n-butylamine, p-cresol, tetramethylguanidine (TMG), acetic acid in ACN, and 10 mM solution of the probes in a mixture of DMF-ACN (v/v=10:90) are made.
(i) p-Cresol reactivity against a probe mixture: A solution of p-cresol (16.5 μmol, 3.3 eq) was premixed with 1.1, 2.2, or 3.3 eq of TMG. To initiate the reaction, the p-cresol/TMG solution was added to a sulfonyl probe mixture of HHS-475/HHS-482/HHS-SF-1 (500 μL, 5 μmol, 1.0 eq each) and the reaction was kept at 0° C. The reaction progress was monitored by taking out a 50.0 μL aliquot of the reaction mixture at various time points followed by addition of a 10 μL quenching solution of acetic acid (0.5 M final, 5.0 μmol) and the internal caffeine standard (0.05 M final, 0.5 μmol). Sample (1.0 μL) was injected and analyzed by reverse-phase HPLC on a Shimadzu 1100 Series spectrometer (Shimadzu, Kyoto, Japan) with UV detection at 254 nm. Reaction progress was evaluated by monitoring consumption of sulfonyl probes because all probes generate a shared p-cresol and n-butylamine product. Chromatographic separation was performed using a Phenomenex Kinetex C18 column (2.6 μm, 50 mm×4.6 mm, Phemonenex, Torrance, California, United States of America). […]

C#CCNC(=O)c1ccc(S(=O)(=O)n2cncn2)cc1 [HHS-475, 4-((1H-1,2,4-Triazol-1-yl)sulfonyl)-N-(prop-2-yn-1-yl)benzamide]
tyrosine sites identified in aggregate across 5 cell proteomes [1]: ~8,000 sites
time to consumption of probe by p-cresol [2]: ≤ 30 min
